These results are taken from ChEMBL document CHEMBL2074428, “New alpha(1)-adrenoceptor antagonists derived from the antipsychotic sertindole - carbon-11 labelling and pet examination of brain uptake in the cynomolgus monkey” (Nucl Med Biol, 2004).

This data set concerns the target ATP-dependent translocase ABCB1 (Homo sapiens, UniProt P08183). Put plainly: TP_TRANSPORTER: transepithelial transport in Caco2 cells. It counts as functional, cell-based. Particulars: caco-2.

Each structure is given as a SMILES string.

Sequence of ATP-dependent translocase ABCB1 (P08183 whole entry): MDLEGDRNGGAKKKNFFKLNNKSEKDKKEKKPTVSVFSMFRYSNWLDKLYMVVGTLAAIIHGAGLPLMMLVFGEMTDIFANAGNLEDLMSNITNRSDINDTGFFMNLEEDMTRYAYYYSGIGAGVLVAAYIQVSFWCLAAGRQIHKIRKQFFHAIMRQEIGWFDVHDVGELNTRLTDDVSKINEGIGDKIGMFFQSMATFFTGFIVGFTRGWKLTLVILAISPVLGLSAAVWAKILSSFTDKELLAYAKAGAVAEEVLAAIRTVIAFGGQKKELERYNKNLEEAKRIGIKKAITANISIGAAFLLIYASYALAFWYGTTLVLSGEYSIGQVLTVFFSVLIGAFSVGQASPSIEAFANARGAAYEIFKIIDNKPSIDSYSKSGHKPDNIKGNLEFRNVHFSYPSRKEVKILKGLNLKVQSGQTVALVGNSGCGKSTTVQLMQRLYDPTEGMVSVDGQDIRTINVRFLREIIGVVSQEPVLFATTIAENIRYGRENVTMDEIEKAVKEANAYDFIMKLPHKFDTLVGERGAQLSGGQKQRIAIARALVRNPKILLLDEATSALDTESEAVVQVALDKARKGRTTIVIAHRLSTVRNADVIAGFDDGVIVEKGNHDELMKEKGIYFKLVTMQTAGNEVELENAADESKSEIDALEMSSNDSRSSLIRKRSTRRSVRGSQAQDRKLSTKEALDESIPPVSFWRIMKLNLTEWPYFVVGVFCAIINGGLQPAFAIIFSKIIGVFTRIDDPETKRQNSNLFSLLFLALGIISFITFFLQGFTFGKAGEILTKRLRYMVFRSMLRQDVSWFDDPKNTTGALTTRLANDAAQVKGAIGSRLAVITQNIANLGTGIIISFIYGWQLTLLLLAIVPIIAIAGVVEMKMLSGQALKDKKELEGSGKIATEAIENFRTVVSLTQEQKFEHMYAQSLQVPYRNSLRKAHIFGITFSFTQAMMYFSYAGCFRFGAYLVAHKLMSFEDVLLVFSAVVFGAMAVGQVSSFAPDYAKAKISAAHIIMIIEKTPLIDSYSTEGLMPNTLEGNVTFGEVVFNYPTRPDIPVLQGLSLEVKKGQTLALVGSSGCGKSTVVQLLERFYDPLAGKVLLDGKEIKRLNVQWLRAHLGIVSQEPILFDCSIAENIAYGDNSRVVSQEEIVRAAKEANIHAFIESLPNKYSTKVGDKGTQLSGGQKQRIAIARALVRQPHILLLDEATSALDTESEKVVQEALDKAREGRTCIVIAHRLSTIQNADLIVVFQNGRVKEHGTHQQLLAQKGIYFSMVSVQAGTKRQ

Consider `[11CH3]n1cc(-c2ccc3c(c2)c(C2CCN(CCN4CCNC4=O)CC2)cn3-c2ccc(F)cc2)nn1`, for which the Activity entry was “substrate [+]”.
In the case of `[11CH3]n1nnc(-c2ccc3c(c2)c(C2CCN(CCN4CCNC4=O)CC2)cn3-c2ccc(F)cc2)n1` it was “substrate [+]”.
